These results are taken from patent US11447487B2, “Spiroheptanyl hydantoins as rock inhibitors” (BRISTOL-MYERS SQUIBB COMPANY, priority 2017, dated 2022).

The structures appear in SMILES notation.

Sequence of ROCK2 (O75116 whole entry, species assumed): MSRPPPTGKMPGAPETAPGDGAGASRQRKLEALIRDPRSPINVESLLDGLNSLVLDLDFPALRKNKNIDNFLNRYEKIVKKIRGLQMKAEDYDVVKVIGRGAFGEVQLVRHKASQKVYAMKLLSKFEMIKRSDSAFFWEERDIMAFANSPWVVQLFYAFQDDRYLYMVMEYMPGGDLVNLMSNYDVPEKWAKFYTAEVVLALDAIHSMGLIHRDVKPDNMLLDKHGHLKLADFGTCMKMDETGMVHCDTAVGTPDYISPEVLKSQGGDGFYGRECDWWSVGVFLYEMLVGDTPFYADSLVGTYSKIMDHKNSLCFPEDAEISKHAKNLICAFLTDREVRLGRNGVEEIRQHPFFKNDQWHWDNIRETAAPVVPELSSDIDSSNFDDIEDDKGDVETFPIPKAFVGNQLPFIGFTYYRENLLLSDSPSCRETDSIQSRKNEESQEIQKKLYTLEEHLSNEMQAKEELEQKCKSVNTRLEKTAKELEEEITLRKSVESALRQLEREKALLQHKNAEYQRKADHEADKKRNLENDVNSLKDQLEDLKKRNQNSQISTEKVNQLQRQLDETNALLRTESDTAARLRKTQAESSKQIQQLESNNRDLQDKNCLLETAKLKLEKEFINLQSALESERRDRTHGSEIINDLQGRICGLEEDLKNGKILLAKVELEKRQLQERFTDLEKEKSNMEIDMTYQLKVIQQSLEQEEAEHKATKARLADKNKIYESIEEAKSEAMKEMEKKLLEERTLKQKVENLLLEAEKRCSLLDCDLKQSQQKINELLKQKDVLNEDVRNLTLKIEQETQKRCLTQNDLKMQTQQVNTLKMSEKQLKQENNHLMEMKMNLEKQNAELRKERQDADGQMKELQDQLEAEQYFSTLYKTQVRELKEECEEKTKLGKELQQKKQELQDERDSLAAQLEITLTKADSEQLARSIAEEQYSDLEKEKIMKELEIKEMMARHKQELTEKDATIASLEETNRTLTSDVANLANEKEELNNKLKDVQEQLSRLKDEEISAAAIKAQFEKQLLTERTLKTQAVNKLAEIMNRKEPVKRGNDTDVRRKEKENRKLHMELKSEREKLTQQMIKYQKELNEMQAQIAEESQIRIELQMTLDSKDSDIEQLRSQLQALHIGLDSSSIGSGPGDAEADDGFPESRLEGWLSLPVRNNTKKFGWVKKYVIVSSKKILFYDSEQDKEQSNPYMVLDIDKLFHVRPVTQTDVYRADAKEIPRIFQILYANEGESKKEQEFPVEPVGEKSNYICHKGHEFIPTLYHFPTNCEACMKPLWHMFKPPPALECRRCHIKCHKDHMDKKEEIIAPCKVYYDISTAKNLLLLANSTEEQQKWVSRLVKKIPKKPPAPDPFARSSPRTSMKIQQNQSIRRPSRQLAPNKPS

The assay deals with ROCK2 (Homo sapiens (Human), UniProt O75116). In words: ROCK assay (Caliper LABCHIP peptide phosphorylation). It is filed as biochemical. Conditions: 5 μM ATP, 1.5 μM peptide substrate. As to the method:
The effectiveness of compounds of the present invention as ROCK inhibitors can be determined in a 30 μL assay containing 20 mM HEPES, pH 7.5, 20 mM MgCl2, 0.015% Brij-35, 4 mM DTT, 5 μM ATP and 1.5 μM peptide substrate (FITC-AHA-AKRRRLSSLRA-OH) (SEQ ID No. 1). Compounds were dissolved in DMSO so that the final concentration of DMSO was <2%, and the reaction was initiated with Rho kinase variants. After incubation, the reaction was terminated by the addition of EDTA and the phosphorylated and non-phosphorylated peptides separated using a LABCHIP® 3000 Reader (Caliper Life Sciences). […] Compounds were tested in dose-response format, and the inhibition of kinase activity was calculated at each concentration of compound. The inhibition data were fit using a curve-fitting program to determine the IC50; i.e., the concentration of compound required to inhibit 50% of kinase activity. Representative Examples were tested in the ROCK assay described above and found having ROCK inhibitory activity. A range of ROCK inhibitory activity (IC50 values) of ≤50 μM (50000 nM) was observed. Table A below lists the ROCK IC50 values measured for the following examples.
In general, IC50 refers to the point on the concentration scale where inhibition reaches its midpoint. Consider `CC[C@H](C)[C@@H]1NC(=O)N([C@H]2C[C@@]3(C[C@H](Oc4ncccc4C(N)=O)C3)C2)C1=O` (stereo partly drawn) [Example 27, 2-{[(αR)-6-[(4S)-4-[(2S)-butan-2-yl]-2,5-dioxoimidazol-idin-1-yl]spiro-[3.3]heptan-2-yl]-oxy}pyridine-3-carboxamide], for which the IC50 was determined as 45 nM.
The value for `CCCC[C@@H]1NC(=O)N([C@H]2C[C@@]3(C[C@H](Oc4ncccc4C(N)=O)C3)C2)C1=O` (stereo partly drawn) [Example 28, 2-{[(αR)-6-[(4S)-4-butyl-2,5-dioxo-imidazolidin-1-yl]spiro[3.3]heptan-2-yl]oxy}pyridine-3-carboxamide] was 57 nM; that for `NC(=O)c1cccnc1O[C@H]1C[C@]2(C1)C[C@H](N1C(=O)NC(CCC(F)(F)F)C1=O)C2` (some centres unmarked) [Example 29, 2-{[(αR)-6-[2,5-dioxo-4-(3,3,3-trifluoropropyl)-imidazolidin-1-yl]spiro[3.3]-heptan-2-yl]oxy}-pyridine-3-carbox-amide] was 62 nM; that for `CSCC[C@@H]1NC(=O)N([C@H]2C[C@@]3(C[C@H](Oc4ncccc4C(N)=O)C3)C2)C1=O` (stereo partly drawn) [Example 30, 2-{[(αR)-6-[(4S)-4-[2-(methyl-sulfanyl)ethyl]-2,5-dioxoimidazol-idin-1-yl]spiro-[3.3]heptan-2-yl]-oxy}pyridine-3-carboxamide] was 89 nM.
With `CCC[C@@H]1NC(=O)N([C@H]2C[C@@]3(C[C@H](Oc4ncccc4C(N)=O)C3)C2)C1=O` (stereo partly drawn) [Example 31, 2-{[(αR)-6-[(4S)-2,5-dioxo-4-propyl-imidazolidin-1-yl]-spiro[3.3]heptan-2-yl]oxy}pyridine-3-carboxamide] the figure was 123 nM; with `NC(=O)c1cccnc1O[C@H]1C[C@]2(C1)C[C@H](N1C(=O)N[C@@H](CC(F)(F)F)C1=O)C2` (stereo partly drawn) [Example 32, 2-{[(αR)-6-[(4S)-2,5-dioxo-4-(2,2,2-trifluoroethyl)-imidazolidin-1-yl]-spiro[3.3]heptan-2-yl]oxy}pyridine-3-carboxamide], 156 nM; with `NC(=O)c1cccnc1O[C@H]1C[C@]2(C1)C[C@H](N1C(=O)N[C@@H](CCOCc3ccccc3)C1=O)C2` (stereo partly drawn) [Example 33, 2-{[(αR)-6-[(4S)-4-[2-(benzyloxy)-ethyl]-2,5-dioxo-imidazolidin-1-yl]-spiro[3.3]heptan-2-yl]oxy}pyridine-3-carboxamide], 426 nM.
With `NC(=O)c1cccnc1OC1CC2(C1)CC(N1C(=O)N[C@H](Cc3ccccc3)C1=O)C2` (stereo partly drawn) [Example 34, 2-({6-[(4R)-4-benzyl-2,5-dioxo-imidazolidin-1-yl]-spiro[3.3]heptan-2-yl}oxy)pyridine-3-carboxamide] the figure was 539 nM; with `CC[C@@H]1NC(=O)N([C@H]2C[C@@]3(C[C@H](Oc4ncccc4C(N)=O)C3)C2)C1=O` (stereo partly drawn) [Example 35, 2-{[(αR)-6-((4S)-4-ethyl-2,5-dioxo-imidazolidin-1-yl]-spiro[3.3]heptan-2-yl]oxy}pyridine-3-carboxamide], 1660 nM; with `COC[C@@H]1NC(=O)N([C@H]2C[C@@]3(C[C@H](Oc4ncccc4C(N)=O)C3)C2)C1=O` (stereo partly drawn) [Example 36, 2-{[(αR)-6-[(4S)-4-(methoxymethyl)-2,5-dioxoimidazol-idin-1-yl]spiro-[3.3]heptan-2-yl]-oxy}pyridine-3-carboxamide], 2390 nM.
For `[H][C@]1(Oc2ncccc2C(N)=O)C[C@]2(C[C@@H](N3C(=O)NC(CCC4CC4)C3=O)C2)C1` (some centres unmarked) [Example 37], the IC50 came to 44 nM.
Regarding `CCCC(C)CC1NC(=O)N([C@H]2C[C@@]3(C[C@H](Oc4ncccc4C(N)=O)C3)C2)C1=O` (some centres unmarked) [Example 39, 2-{[(αR)-6-[4-(2-methylpentyl)-2,5-dioxoimidazolidin-1-yl]spiro[3.3]-heptan-2-yl]oxy}-pyridine-3-carbox-amide], half-maximal inhibition (IC50) was put at 14 nM.
The value for `CCC(C)CC1NC(=O)N([C@H]2C[C@@]3(C[C@H](Oc4ncccc4C(N)=O)C3)C2)C1=O` (some centres unmarked) [Example 41, 2-{[(αR)-6-[4-(2-methylbutyl)-2,5-dioxoimidazolidin-1-yl]spiro[3.3]-heptan-2-yl]oxy}-pyridine-3-carbox-amide] was 19 nM; that for `CC(C)CC1NC(=O)N([C@H]2C[C@@]3(C[C@H](Oc4ncccc4C(N)=O)C3)C2)C1=O` (some centres unmarked) [Example 44, 2-{[(αR)-6-[4-(2-methylpropyl)-2,5-dioxoimidazolidin-1-yl]spiro[3.3]-heptan-2-yl]oxy}-pyridine-3-carbox-amide] was 29 nM; that for `NC(=O)c1cccnc1O[C@H]1C[C@]2(C1)C[C@H](N1C(=O)NC(CC3CCCC3)C1=O)C2` (some centres unmarked) [Example 45, 2-{[(αR)-6-[4-(cyclopentyl-methyl)-2,5-dioxo-imidazolidin-1-yl]spiro[3.3]-heptan-2-yl]oxy}-pyridine-3-carbox-amide] was 30 nM.
With `NC(=O)c1cccnc1O[C@H]1C[C@]2(C1)C[C@H](N1C(=O)NC(CC3CC(F)(F)C3)C1=O)C2` (some centres unmarked) [Example 46, 2-{[(αR)-6-{4-[(3,3-difluorocyclo-butyl)methyl]-2,5-dioxoimidazolidin-1-yl}spiro[3.3]-heptan-2-yl]oxy}-pyridine-3-carbox-amide] the figure was 48 nM; with `NC(=O)c1cccnc1O[C@H]1C[C@]2(C1)C[C@H](N1C(=O)NC(CCC(F)(F)F)C1=O)C2` (some centres unmarked) [Example 49, 2-{[(αR)-6-[2,5-dioxo-4-(3,3,3-trifluoropropyl)-imidazolidin-1-yl]-spiro[3.3]heptan-2-yl]oxy}pyridine-3-carboxamide], 99 nM; with `CCC(CC)C1NC(=O)N([C@H]2C[C@@]3(C[C@H](Oc4ncccc4C(N)=O)C3)C2)C1=O` (some centres unmarked) [Example 51, 2-{[(αR)-6-[2,5-dioxo-4-(pentan-3-yl)imidazolidin-1-yl]spiro[3.3]heptan-2-yl]oxy}pyridine-3-carboxamide], 155 nM.
With `CC(C)CCC1NC(=O)N([C@H]2C[C@@]3(C[C@H](Oc4ncccc4C(N)=O)C3)C2)C1=O` (some centres unmarked) [Example 54, 2-{[(αR)-6-[4-(3-methylbutyl)-2,5-dioxoimidazolidin-1-yl]spiro[3.3]-heptan-2-yl]oxy}-pyridine-3-carbox-amide] the figure was 186 nM; with `CC(C)(O)CC1NC(=O)N([C@H]2C[C@@]3(C[C@H](Oc4ncccc4C(N)=O)C3)C2)C1=O` (some centres unmarked) [Example 58, 2-{[(αR)-6-[4-(2-hydroxy-2-methyl-propyl)-2,5-dioxo-imidazolidin-1-yl]-spiro[3.3]heptan-2-yl]oxy}pyridine-3-carboxamide], 289 nM; with `CC(C)(O)CCC1NC(=O)N([C@H]2C[C@@]3(C[C@H](Oc4ncccc4C(N)=O)C3)C2)C1=O` (some centres unmarked) [Example 62, 2-{[(αR)-6-[4-(3-hydroxy-3-methyl-butyl)-2,5-dioxo-imidazolidin-1-yl]-spiro[3.3]heptan-2-yl]oxy}pyridine-3-carboxamide], 421 nM.
As for `NC(=O)c1cccnc1O[C@H]1C[C@]2(C1)C[C@H](N1C(=O)C(=O)N(CC3CCC3)C1=O)C2` (some centres unmarked) [Example 63, 2-{[(αR)-6-[3-(cyclobutyl-methyl)-2,4,5-tri-oxoimidazolidin-1-yl]spiro[3.3]-heptan-2-yl]oxy}-pyridine-3-carbox-amide], the IC50 is 617 nM.
As to `CC(C)CCN1C(=O)C(=O)N([C@H]2C[C@@]3(C[C@H](Oc4ncccc4C(N)=O)C3)C2)C1=O` (some centres unmarked) [Example 65, 2-{[(αR)-6-[3-(3-methylbutyl)-2,4,5-trioxo-imidazolidin-1-yl]spiro[3.3]-heptan-2-yl]oxy}-pyridine-3-carbox-amide], 968 nM corresponded to half-maximal inhibition (IC50).
